Molecular target: factor Xa (Bos taurus, UniProt P00743)
Assay: kinetic amidolytic
Format: biochemical

factor Xa, sequence (P00743 41-180): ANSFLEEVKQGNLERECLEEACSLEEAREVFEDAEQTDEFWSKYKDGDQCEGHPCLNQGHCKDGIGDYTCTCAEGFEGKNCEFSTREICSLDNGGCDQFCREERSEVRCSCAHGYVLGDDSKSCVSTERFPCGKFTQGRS
factor Xa, sequence (P00743 234-492): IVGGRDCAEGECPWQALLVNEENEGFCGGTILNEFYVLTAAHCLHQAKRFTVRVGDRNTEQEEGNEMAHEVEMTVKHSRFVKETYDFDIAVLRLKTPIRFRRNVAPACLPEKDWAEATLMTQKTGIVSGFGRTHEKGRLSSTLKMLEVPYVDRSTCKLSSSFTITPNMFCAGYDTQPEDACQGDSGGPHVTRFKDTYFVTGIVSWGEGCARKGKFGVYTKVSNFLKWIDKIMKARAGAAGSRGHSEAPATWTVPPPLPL

IC50: > 2880 nM
Compound: COc1ccc(NC(=O)c2ccc(C(=N)N(C)C)cc2)c(C(=O)Nc2ccc(Cl)cn2)c1 [betrixaban]
